The source of these data is publication PMC3787745, “Yeast Mnn9 is both a priming glycosyltransferase and an allosteric activator of mannan biosynthesis” (Open Biology, 2013).

The structures appear in SMILES notation.

This assay has as its target T1, ScVan1 with ScMnn9 (M-Pol I complex) (Saccharomyces cerevisiae, UniProt P23642).
T1 construct: gene VAN1; separately expressed glycosyltransferase domains (Van1 87-535, Mnn9 93-395) mixed; heterodimer; MBP-His6 tags cleaved by TEV; E. coli BL21(DE3) pLysS; with Mannan polymerase complexes subunit MNN9
In words: FACE gel of ANTS-labelled products. Format: biochemical. The note with it: donor 1.2 mM; acceptor 10 mM α-1,6-mannobiose; 10 mM MnCl2; 20 mM HEPES pH 7.5; 30°C; both subunits wild-type.

T1 sequence (P23642 87-535): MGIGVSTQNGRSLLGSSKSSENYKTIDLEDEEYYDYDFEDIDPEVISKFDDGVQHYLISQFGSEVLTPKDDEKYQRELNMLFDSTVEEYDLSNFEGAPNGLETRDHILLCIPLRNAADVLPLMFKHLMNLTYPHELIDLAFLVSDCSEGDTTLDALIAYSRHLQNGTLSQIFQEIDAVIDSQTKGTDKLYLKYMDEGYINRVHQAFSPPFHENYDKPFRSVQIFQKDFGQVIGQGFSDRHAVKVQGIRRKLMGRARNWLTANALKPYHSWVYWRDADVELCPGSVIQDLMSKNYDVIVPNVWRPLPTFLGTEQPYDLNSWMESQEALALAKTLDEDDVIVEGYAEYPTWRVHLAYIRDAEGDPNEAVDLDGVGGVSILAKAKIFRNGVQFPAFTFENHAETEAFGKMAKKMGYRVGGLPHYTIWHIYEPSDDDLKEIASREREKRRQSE
T1 sequence (P39107 93-395 partner): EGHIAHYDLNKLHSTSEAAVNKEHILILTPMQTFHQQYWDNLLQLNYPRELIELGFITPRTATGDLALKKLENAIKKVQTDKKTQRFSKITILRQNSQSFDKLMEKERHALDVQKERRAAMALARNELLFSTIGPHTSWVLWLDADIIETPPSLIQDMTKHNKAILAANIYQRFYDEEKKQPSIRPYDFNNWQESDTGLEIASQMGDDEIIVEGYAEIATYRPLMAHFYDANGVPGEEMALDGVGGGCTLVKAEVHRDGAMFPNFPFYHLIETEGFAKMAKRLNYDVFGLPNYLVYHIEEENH

On to `Nc1nc2c(ncn2[C@@H]2O[C@H](COP(=O)(O)OP(=O)(O)O[C@H]3O[C@H](CO)[C@@H](O)[C@H](O)[C@@H]3O)[C@@H](O)[C@H]2O)c(=O)[nH]1` [GDP-Man], for which the “FACE gel of ANTS-labelled products” value was “ScMnn9, ScVan1, GDP-Man, α-1,6-mannobiose and MnCl2 were incubated”.
